Data reported in US6610729B1, “Hydroxamic acid derivatives and medicinal utilization thereof” (Mitsubishi Pharma Corporation, priority 1998, dated 2003).
Where a name gives a salt, the structure may show the parent alone.

Columns and labels:
[1] = Solubility in saline (0.9% aqueous sodium chloride solution) at 25° C.; type: physicochemical; settings: for solubility: saline or isotonic
Protocol: The solubility of the Example compounds of the present invention in saline (0.9% aqueous sodium chloride solution) at 25° C. was measured.

[2] = test system: release of TNF α from THP-1 cells; assay: Inhibitory activity of TNF α release from THP-1 cells (LPS, ELISA); type: cell-based; settings: 3 hr, 37° C., TNF α by ELISA
Protocol: The inhibitory effect of each compound (compounds of Examples 1, 2, 3, 6, 35, 39 and 44) on the release of TNF α from THP-1 cells which are monocyte cultured cells [see Nature 370, 218-220 (1994)] was investigated.
The THP-1 cells were suspended to a concentration of 1×10 ^6 cells/ml in RPMI1640 medium supplemented with 10% fetal calf serum (FCS) and dispensed by 100 μl. A 2 μg/ml LPS was prepared with RPMI1640 medium supplemented with 10% FCS. Each compound (dissolved in dimethyl sulfoxide) was diluted 500-fold with the LPS solution.
The diluted solutions of these compounds were added to the dispensed cell suspensions by 100 μl and allowed for 3 hr to react under the conditions of 37° C., 5% CO2. After the completion of the reaction, the reaction mixture was centrifuged and the culture supernatant was collected. The TNF α amount was quantitatively measured by ELISA (enzyme-linked immunosorbent assay). The TNF α release inhibitory effect by each compound was calculated from the proportion of released TNF α amount of the compound addition group relative to that of the compound non-addition group.

[3] = test system: release of TNF α from LPS treated human whole blood; assay: Inhibitory activity of TNF α release from LPS treated human whole blood (ELISA); type: cell-based; settings: LPS treated human whole blood diluted 4-fold, 24 hr, 37° C., TNF α by ELISA
Protocol: The inhibitory effect of each compound (compounds of Examples 2, 6, 7, 10, 11, 37, 147, 231 and 245) on the release of TNF α from LPS treated human whole blood [see: Lymphokine Res 8, 141-146 (1989)] was investigated.
Human whole blood was diluted 4-fold with RPMI1640 medium supplemented with 10% FCS. The diluted blood was dispensed to a 96 multi-well plate by 100 μl and equilibrated under the conditions of 37° C., 5% CO2. LPS (2 μg/ml) was prepared with RPMI1640 medium supplemented with 10% FCS and a culture broth prepared by dissolving each compound (dissolved in dimethyl sulfoxide) in the LPS solution was added by 100 μl/well (final concentrated of dimethyl sulfoxide 0.1%), which was followed by incubation for 24 hr (37° C., 5% CO2). After the incubation, the reaction mixture was centrifuged (1,500 rpm, 5 min). The culture supernatant (40 μl/well) was collected, and TNF α amount in the supernatant was quantitatively measured by ELISA. The TNF α release inhibitory effect by each compound was calculated from the proportion of release TNF α amount of the compound addition group relitive to that of the compound non-addition group.

solubility [1]	IC50 [3]	Compound	Solubility, saline [1]	other results
> 20 mg/mL	–	CC(C)C[C@@H](C(=O)N[C@@H](Cc1ccc(S(=O)(=O)[O-])cc1)C(=O)c1ccco1)C(Cc1ccccc1)C(=O)NO.[Na+] (single isomer, unassigned) [Example 9, Sodium Salt of 2(R or S)-Benzyl-3(R)-[1(S)-(2-furyl)carbonyl-2-(4-sulfophenyl)ethylcarbamoyl]-5-methylhexanohydroxamic Acid]	–	–
> 20 mg/mL	2460 nM	CC(C)C[C@@H](C(=O)N[C@@H](Cc1ccc(S(=O)(=O)[O-])cc1)C(=O)c1ccco1)C(Cc1ccc2ccccc2c1)C(=O)NO.[Na+] (single isomer, unassigned) [Example 7, Sodium Salt of 3(R)-[1(S)-(2-Furyl)carbonyl-2-(4-sulfophenyl)ethylcarbamoyl]-5-methyl-2(R or S)-(2-naphthylmethyl)hexanohydroxamic Acid]	–	–
> 20 mg/mL	1730 nM	CC(C)C[C@@H](C(=O)N[C@@H](Cc1ccc(S(=O)(=O)[O-])cc1)C(=O)c1ccco1)C(CN1Cc2ccccc2C1=O)C(=O)NO.[Na+] (single isomer, unassigned) [Example 11, Sodium Salt of 3(R)-[1(S)-(2-Furyl)carbonyl-2-(4-sulfophenyl)ethylcarbamoyl]-5-methyl-2(R or S)-(1-oxoisoindolin-2-ylmethyl)hexanohydroxamic Acid]	–	–
–	3740 nM	CC(C)C[C@@H](C(=O)N[C@@H](Cc1ccccc1)C(=O)c1ccc(CO)o1)C(CN1C(=O)N(C)C(C)(C)C1=O)C(=O)NO (single isomer, unassigned) [Example 245, 3(R)-[1(S)-[2-(5-Hydroxymethyl)furyl]carbonyl-2-phenyl]ethylcarbamoyl-5-methyl-2(R or S)-(2,5-dioxo-3,4,4-trimethyl-1-imidazolidinyl)methylhexanohydroxamic Acid]	–	–
> 20 mg/mL	–	CC(C)C[C@@H](C(=O)N[C@@H](Cc1ccc(OCCN(C)C)cc1)C(=O)c1ccco1)C(CN1C(=O)N(C)C(C)(C)C1=O)C(=O)NO.Cl (single isomer, unassigned) [Example 5, 3(R)-[2-[4-(2-Dimethylaminoethoxy)phenyl]-1(S)-(2-furyl)carbonyl]ethylcarbamoyl-5-methyl-2(R or S)-(2,5-dioxo-3,4,4-trimethyl-1-imidazolidinyl)methylhexanohydroxamic Acid Hydrochloride]	–	–
10 mg/mL	1700 nM	CC(C)C[C@@H](C(=O)N[C@@H](Cc1ccc(S(=O)(=O)[O-])cc1)C(=O)c1ccco1)C(CN1C(=O)c2ccccc2C1=O)C(=O)NO.[Na+] (single isomer, unassigned) [Example 10, Sodium Salt of 3(R)-[1(S)-(2-Furyl)carbonyl-2-(4-sulfophenyl)ethylcarbamoyl]-5-methyl-2(R or S)-phthalimidomethylhexanohydroxamic Acid]	–	–

Further lines, the molecule ahead of its results:

Compound	solubility [1]	IC50 [3]	Solubility, saline [1]	other results
CC(C)C[C@@H](C(=O)N[C@H](C(=O)c1ccc(OCCN(C)C)cc1)C(C)(C)C)C(CCCc1ccccc1)C(=O)NO.Cl (single isomer, unassigned) [Example 88, 3(R)-[2,2-dimethyl-1(S)-[4-(2-dimethylaminoethoxy)benzoyl]]propylcarbamoyl-5-methyl-2(R or S)-(3-phenylpropyl)hexanohydroxamic acid hydrochloride]	–	–	5 mg/mL	–
CC(C)C[C@@H](C(=O)N[C@@H](Cc1ccccc1)C(=O)c1ccc(OCCN(C)C)cc1)C(CCCc1ccccc1)C(=O)NO.Cl (single isomer, unassigned) [Example 35, 3(R)-[1(S)-[4-(2-Dimethylaminoethoxy)benzoyl]-2-phenyl]ethylcarbamoyl-5-methyl-2(R or S)-(3-phenylpropyl)hexanohydroxamic Acid Hydrochloride]	–	–	>20 mg/mL	IC50 [2]: 140 nM
CC(C)C[C@@H](C(=O)N[C@@H](Cc1ccc(S(=O)(=O)[O-])cc1)C(=O)c1ccco1)C(Cc1cccc2ccccc12)C(=O)NO.[Na+] (single isomer, unassigned) [Example 8, Sodium Salt of 3(R)-[1(S)-(2-Furyl)carbonyl-2-(4-sulfophenyl)ethylcarbamoyl]-5-methyl-2(R or S)-(1-naphthylmethyl)hexanohydroxamic Acid]	> 20 mg/mL	–	–	–
CC(C)C[C@@H](C(=O)N[C@@H](Cc1ccccc1)C(=O)c1ccc(OCCN(C)C)cc1)C(CN1C(=O)N(C)C(C)(C)C1=O)C(=O)NO.Cl (single isomer, unassigned) [Example 37, 3(R)-[1(S)-[4-(2-Dimethylaminoethoxy)benzoyl]-2-phenyl]ethylcarbamoyl-5-methyl-2(R or S)-(2,5-dioxo-3,4,4-trimethyl-1-imidazolidinyl)methylhexanohydroxamic Acid Hydrochloride]	–	3470 nM	>20 mg/mL	–
CC(C)C[C@@H](C(=O)N[C@@H](Cc1ccccc1)C(=O)c1ccc(OCCN2CCN(C)CC2)cc1)C(CN1C(=O)c2ccccc2C1=O)C(=O)NO (single isomer, unassigned) [Example 1, 5-Methyl-3(R)-[1(S)-[4-[2-[1-(4-methyl)piperazinyl]ethoxy]benzoyl]-2-phenyl]ethylcarbamoyl-2(R or S)-phthalimidomethylhexanohydroxamic Acid Dihydrochloride]	> 10 mg/mL	–	–	IC50 ([2]; Homo sapiens): 270 nM
CC(C)C[C@@H](C(=O)N[C@@H](Cc1ccc(OS(=O)(=O)[O-])cc1)C(=O)c1ccco1)C(CN1C(=O)N(C)C(C)(C)C1=O)C(=O)NO.[Na+] (single isomer, unassigned) [Example 84, Sodium Salt of 3(R)-[1(S)-(2-Furyl)carbonyl-2-[4-(hydroxysulfonyloxy)phenyl]]ethylcarbamoyl-5-methyl-2(R or S)-(2,5-dioxo-3,4,4-trimethyl-1-imidazolidinyl)methylhexanohydroxamic Acid]	–	–	>20 mg/mL	–
CC(C)C[C@@H](C(=O)N[C@H](C(=O)c1ccc(OCCN(C)C)cc1)C(C)(C)C)C(CN1C(=O)c2ccccc2C1=O)C(=O)NO.Cl (single isomer, unassigned) [Example 39, 3(R)-[2,2-Dimethyl-1(S)-[4-(2-dimethylaminoethoxy)benzoyl]]propylcarbamoyl-5-methyl-2(R or S)-phthalimidomethylhexanohydroxamic Acid Hydrochloride]	–	–	>20 mg/mL	IC50 [2]: 300 nM
CC(C)C[C@@H](C(=O)N[C@@H](Cc1ccc(NC(=N)N)cc1)C(=O)c1ccco1)C(CN1C(=O)c2ccccc2C1=O)C(=O)NO (single isomer, unassigned) [Example 3, 3(R)-[1(S)-(2-Furyl)carbonyl-2-(4-guanidinophenyl)]ethylcarbamoyl-5-methyl-2(R or S)-phthalimidomethylhexanohydroxamic Acid Hydrochloride]	–	–	–	IC50 ([2]; Homo sapiens): 190 nM
CC(C)C[C@@H](C(=O)N[C@@H](Cc1ccccc1)C(=O)c1ccc(OCCN(C)C)cc1)C(CN1C(=O)c2ccccc2C1=O)C(=O)NO.Cl (single isomer, unassigned) [Example 2, 3(R)-[1(S)-[4-(2-Dimethylaminoethoxy)benzoyl]-2-phenyl]ethylcarbamoyl-5-methyl-2(R or S)-phthalimidomethylhexanohydroxamic Acid Hydrochloride]	> 5 mg/mL	650 nM	–	IC50 ([2]; Homo sapiens): 200 nM
CC(C)C[C@@H](C(=O)N[C@@H](Cc1ccc(OCCN(C)C)cc1)C(=O)c1ccco1)C(CCCc1ccccc1)C(=O)NO (single isomer, unassigned) [Example 44, 3(R)-[2-[4-(2-dimethylaminoethoxy)phenyl]-1(S)-(2-furyl)carbonyl]ethylcarbamoyl-5-methyl-2(R or S)-(3-phenylpropyl)hexanohydroxamic acid hydrochloride]	–	–	–	IC50 [2]: 420 nM
CC(C)C[C@@H](C(=O)N[C@H](C(=O)c1ccc(OCCN(C)C)cc1)C(C)(C)C)C(CN1C(=O)N(C)C(C)(C)C1=O)C(=O)NO.Cl (single isomer, unassigned) [Example 147, 3(R)-[2,2-Dimethyl-1(S)-[4-(2-dimethylaminoethoxy)benzoyl]]propylcarbamoyl-5-methyl-2(R or S)-(2,5-dioxo-3,4,4-trimethyl-1-imidazolidinyl)methylhexanohydroxamic Acid Hydrochloride]	–	2290 nM	>20 mg/mL	–
